# According to US20230416245A1, “ADENOSINE ANALOGS FOR THE TREATMENT OF DISEASE” (BIOINTERVENE, INC., priority 2020, published 2023):
# Key:
# [1] = biological target: T1, human adenosine A3 receptor (Homo sapiens (Human), UniProt P0DMS8); test: Adenosine receptor binding assay ([125I]-AB-MECA competition); conditions: inhibition of 0.15 nM [125I]-AB-MECA binding, membranes of cells expressing human A3 receptor; read-out: hA3 Ki: Ki
# Source text: Example 30: Adenosine Receptor Binding Assay
# Materials and Reference Compounds: [^125I]-AB-MECA and [^3H]CCPA are both obtained from Amersham Biosciences (Little Chalfont, UK). IB-MECA are obtained from Tocris (Bristol, UK) and N6-cyclopentyl adenosine (CPA) is obtained from Sigma-Alrich (Poole, UK). Cell culture media, G418 and hygromycin are obtained from Invitrogen (Paisley, UK). Fetal calf serum is obtained from Perbio Science (Cheshire, UK). All other reagents are obtained from Fisher Chemicals (Loughborough, UK).
# The method followed is that of Yates L, Clark J H, Martin T J, James S, Broadley K J, Kidd E J. Radioligand binding and functional responses of ligands for human recombinant adenosine A3 receptors. Auton Autacoid Pharmacol. 2006; 26(2):191-200. Cells stably transfected with the human adenosine A3 or A1 receptor are grown in Dulbecco's modified Eagles medium with nutrient mixture F12 containing NaHCO3 and Glutamax. Media is supplemented with 10% fetal calf serum, geneticin (G418; 0.67 mg/mL), hygromycin (500 μg/mL) and adenosine deaminase (1 U/mL). Cells are maintained at 37° C. with 5% CO2 in air. Cells are harvested and homogenized in ice-cold Tris buffer [50 mM Tris, 150 mM NaCl, 1 mM ethylenediaminetetraacetic acid (EDTA), pH 7.4] supplemented with the peptidase inhibitors, 4-(2-aminoethyl)benzenesulfonylfluoride (1 mM) and bacitracin (0.1 mg/mL), using a Polytron homogenizer (3×10 s bursts). The homogenate was spun for 10 min (4° C.) at 500 g. The supernatant is retained and the pellet is re-suspended in the buffer, homogenized and spun as above. The combined supernatants are centrifuged for 15 min (4° C.) at 48,000 g. The resultant pellet is re-suspended in the buffer and centrifuged for a second time at 48,000 g. The membrane pellet is then suspended in Tris buffer containing no peptidase inhibitors or adenosine deaminase and stored at −80° C. at a protein concentration of 1 mg/mL.
# Binding Assays: Radioligand-binding assays were performed using the adenosine A3 receptor agonist [^125I]-AB-MECA and the A1 receptor agonist [^3H]CCPA. Binding assays were conducted in a total volume of 100 μL containing a 50 mM Tris, pH 7.4 buffer with or without 10 mM MgCl2, 20 μg membranes and either 0.15 nM [^125I]-AB-MECA (for the A3 receptor) or 1 nM [^3H]CCPA (for the A1 receptor). Assays were conducted at room temperature for 60 min (A1 receptor) or 120 min (A3 receptor) and terminated by the addition of 2 ml of ice-cold wash buffer (50 mM Tris, pH 7.4 with or without 10 mM MgCl2) and rapid filtration over 0.03% polyethylenimine-treated Whatman GF/C filters using a Brandel cell harvester (Semat International Ltd., St Albans, UK). Filters were then washed three times with 2 ml of ice-cold buffer. The filter-bound radioactivity were counted using a Compugamma counter (LKB Wallac, Turku, Finland). Competition experiments were performed to investigate the ability of reference compounds and embodiments of the invention to inhibit [^125I]-AB-MECA binding. Non-specific binding were determined using the respective compound at its highest concentration.
# Data Analysis: The Kd and Bmax values for binding data were calculated based upon the molar amounts of bound and free [^125I]-AB-MECA. […] IC50 and Ki values and Hill slopes for inhibition of the radioligand binding by the compounds of the invention were calculated from the ligand competition curves using the Excel spreadsheet and the Kd value calculated for either [^125I]-AB-MECA or [^3H]CCPA. The results were expressed as a percent of control specific binding and as a percent inhibition of control specific binding obtained in the presence of the compounds of the invention. The IC50 values (concentration causing a half-maximal inhibition of control specific binding) and Hill coefficients (nH) were determined by non-linear regression analysis of the competition curves generated with mean replicate values using Hill equation curve fitting: […]
# [2] = biological target: ADORA3 (Homo sapiens (Human), UniProt P0DMS8); test: Intracellular calcium release assay (FLIPR); assay type: cell-based
# Protocol: Example 32: Intracellular Calcium Release Assay
# Cell Culture: The table below lists the cell lines used that stably express the 4 subtypes of adenosine receptors, along with the growth medium used for each:
# For experiments with the ADORA1- and ADORA3-expressing cells, the medium was aspirated and the cells washed twice with 10 mL DPBS. Two mL of trypsin was added and incubated at 37° C. for 1 minute. Then 10 mL of platting media was added to terminate the digestion and 1 mL of the solution was taken out for cell counting. ADORA2A- and ADORA2B-expressing cells were thawed rapidly in a 37° C. water bath. Cell suspensions were transferred to 50 mL conical tubes. Plating media was added to the 10 mL mark and then 1 mL taken out for cell counting. The 50 mL tubes containing the various types of cells were centrifuged at 1000 g. Then the supernatants were aspirated, being careful not to aspirate the cells. The cell pellets were resuspended in 3-5 mL platting media, then 0.5 mL was taken out for cell counting. Then the cell suspension was diluted to 1×10^6 cells/mL (20,000 cells per 20 μL per well) in platting medium, and cells were seeded into 384-well cell plates (Greiner-781946). The 384-well cell plate was placed in a 37° C./5% CO2 incubator (Thermo-371, Thermo Scientific) for 16-20 hours.
# Preparation of the intracellular calcium imaging agent (Fluo-4 Direct™ Calcium Assay Kit, Invitrogen-F10471, Thermo Scientific): One mL of FLIPR Assay Buffer was added to 77 mg probenecid to make a 250 mM solution, which was used fresh for each day. One vial of Fluo-4 Direct™ crystals was thawed and 10 mL of FLIPR Assay Buffer was added to the vial. 0.2 mL of probenecid was added to each 10 mL vial of Fluo-Direct™ solution, such that the final assay concentration was 2.5 mM. It was vortexed, left to stand >5 min and protected from light. The dye was prepared fresh each day.
# Compound Preparation: Compound plates were prepared as follows. First, the test compound was diluted to prepare a 2 mM solution and then 10-point 3-fold serial dilutions were made using ECHO (ECHO 555, LabCyte), then 900 nL was transferred to the compound plate. For all targets, the final top concentration of the test compound was […]. For agonist reference compounds, 10-point and 3-fold serial dilutions were made, then 900 nL was transferred to the assay plate. Then 30 μL of assay buffer was added to the compound plate and then the plate was centrifuged at 1000 rpm for 1 min.
# FLIPR Assay: Cell plates were removed from the incubator, to which were added 20 μL 2×Fluo-4 Direct™ solution, then the plates were reincubated in a 5% CO2, 37° C. incubator for 50 min and at RT for 10 min. To run the protocol on the Fluorescent Imaging Plate Reader (FLIPR) TETRA (MD-FT0249, Molecular Devices, Inc.), 10 μL of assay buffer was transferred from the 384-well plate (Greiner-781280) to the cell plates and then the fluorescence signal was read. Then 10 μL of compound solution was transferred from the compound plate to the cell plates and the fluorescence signal was read. The “Max-Min” was calculated, starting from Read 91 to the maximum allowed. For agonists, activation %=(RLU−LC)/(HC−LC)*100, based on the following: RLU=relative light unit, 91 to maximum allowed signal; HC=average signal of the high concentration of agonist; LC=average signal of DMSO well. The data were fitted using GraphPad Prism 5, using the model “log(agonist) vs. response—Variable slope” to determine the EC50 value. The receptor efficacy of the test compound relative to the agonist NECA was calculated as a percentage (%) of the response to […]. Table 10 includes EC50 values for compounds described herein.
# [3] = biological target: T1, human adenosine A3 receptor; test: Intracellular cAMP levels (inhibition of forskolin-stimulated cAMP production); assay type: cell-based
# Source text: Example 31: Intracellular cAMP Levels
# The method followed is that published in Yates L, Clark J H, Martin T J, James S, Broadley K J, Kidd E J. Radioligand binding and functional responses of ligands for human recombinant adenosine A3 receptors. Auton Autacoid Pharmacol. 2006 April; 26(2):191-200.
# Materials and Cell Culture: Adenosine deaminase was obtained from Roche (Lewes, UK). Forskolin was obtained from Sigma-Aldrich (Poole, UK). The sources of other materials are provided above in Example 1. CHO-K1 cells stably transfected with the human adenosine A3 receptor were grown in Dulbecco's modified Eagles medium with nutrient mixture F12 containing NaHCO3 and Glutamax. Media was supplemented with 10% fetal calf serum, geneticin (G418; 0.67 mg/mL), hygromycin (500 μg/mL) and adenosine deaminase (1 U/mL). Cells were maintained at 37° C. with 5% CO2 in air.
# cAMP Measurements: Intracellular cAMP production was measured directly using a non-acetylation cAMP enzyme immunoassay (Amersham Biosciences, Little Chalfont, UK). Cultured CHO cells expressing human adenosine A3 receptors were allowed to plate overnight in 96-well plates in culture medium containing adenosine deaminase. Twenty-four hours later, they were incubated with adenosine analogues or compounds of the invention (0.1 nM-1 μM) for 5 min at 37° C., followed by incubation with forskolin (10 μM) for 10 min. The cells were then lysed with 200 μL of lysis reagent 1 provided with the kit for 10 min to release intracellular cAMP. Aliquots of the supernatants were then transferred to a 96-well microtitre plate coated with donkey anti-rabbit IgG; 100-μL cAMP standards (12.5-3200 fmol/well) were also added to the microtitre plate; 100 μL of rabbit anti-cAMP antibody was added to all wells and incubated at 2-5° C. for 2 h. The antiserum was made up in lysis reagent 2, which sequesters the key component in lysis reagent 1 and ensures that cAMP is free for subsequent analysis. Then 50 μL of cAMP peroxidase conjugate was added to all wells and left to incubate for 60 min at 2-5° C. to allow competition for the antibody between the un-labelled and horse radish peroxidase (HRP)-labelled cAMP. Wells were then washed with buffer and 150 μL of enzyme substrate containing 3,3′,5,5′-tetramethylbenzidine/hydrogen peroxide in 20% (v/v) dimethylformamide was added to each well and left to incubate for 60 min on a Titramax 100 microtitre plate shaker (Heidolph Instruments, Schwabach, Germany) at room temperature for color development. The reaction was stopped by the addition of 100 μL of 1 M sulfuric acid and the optical density (OD) read at 450 nm on a spectrophotometric MRX microplate reader (Dynex Technologies, Chantilly, VA, USA).
# Analyses: Each sample/standard was analyzed in duplicate and the resulting OD values averaged. The percent bound (B/Bo) for each standard and sample was calculated using the following relationship: […]
# where B is the specific OD for standard/sample and Bo is the specific OD for the zero standard. A standard curve was generated by plotting % B/Bo as a function of the log fmol cAMP standard per well. The fmol per well value for cAMP in each sample was then read from the graph. The results are expressed as a percent of control agonist response: (measured response/control response)*100 in the presence of the compounds of the invention. Concentration-response curves for inhibition of cAMP production were constructed for all compounds of the invention and reference compounds. The EC50 values (concentration producing a half-maximal response) were determined by non-linear regression analysis of the concentration-response curves generated with mean replicate values using Hill equation curve fitting, according to the equation:
# where Y=response, A=left asymptote of the curve, D=right asymptote of the curve, C=compound concentration, and C50=EC50, and nH=slope factor. […]
# T1 sequence (P0DMS8 whole entry): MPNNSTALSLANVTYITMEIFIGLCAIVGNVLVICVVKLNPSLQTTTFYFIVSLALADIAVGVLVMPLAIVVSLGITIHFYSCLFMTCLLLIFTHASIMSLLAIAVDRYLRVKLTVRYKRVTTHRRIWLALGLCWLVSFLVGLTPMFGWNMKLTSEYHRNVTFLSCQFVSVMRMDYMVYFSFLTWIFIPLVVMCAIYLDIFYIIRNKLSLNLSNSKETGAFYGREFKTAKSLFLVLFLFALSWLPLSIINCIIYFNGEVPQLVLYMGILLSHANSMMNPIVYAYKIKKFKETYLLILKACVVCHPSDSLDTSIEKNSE
# Sequence of ADORA3 (P0DMS8 whole entry): as above
Structure (SMILES),Ki [1] [nM],also measured
"CNC(=O)[C@@]12C[C@@H]1[C@@H](n1cnc3c(NCC(C)C)cc(Cl)nc31)[C@H](O)[C@@H]2O [Compound 83, (1S,2R,3S,4R,5S)-4-(5-chloro-7-(isobutylamino)-3H-imidazo[4,5-b]pyridin-3-yl)-2,3-dihydroxy-N-methylbicyclo[3.1.0]hexane-1-carboxamide]",1.62,
"CNC(=O)[C@@]12C[C@@H]1[C@@H](n1cnc3c(NCCO)cc(Cl)nc31)[C@H](O)[C@@H]2O [Compound 91, (1S,2R,3S,4R,5S)-4-(5-chloro-7-((2-hydroxyethyl)amino)-3H-imidazo[4,5-b]pyridin-3-yl)-2,3-dihydroxy-N-methylbicyclo[3.1.0]hexane-1-carboxamide]",5.1,
"CCCNc1cc(Cl)nc2c1ncn2[C@H]1[C@H](O)[C@H](O)C2(C(=O)NC)C[C@H]12 (stereo in doubt) [Compound 64, (1S,2R,3S,4R,5S)-4-(5-chloro-7-(propylamino) 3H-imidazo[4,5-b]pyridin-3-yl)-2,3-dihydroxy-N-methylbicyclo[3.1.0]hexane-1-carboxamide]",0.64,
"CNC(=O)[C@@]12C[C@@H]1[C@@H](n1cnc3c(N)cc(Cl)nc31)[C@H](O)[C@@H]2O [Compound 90, (1S,2R,3S,4R,5S)-4-(7-amino-5-chloro-3H-imidazo[4,5-b]pyridin-3-yl)-2,3-dihydroxy-N-methylbicyclo[3.1.0]hexane-1-carboxamide]",2.42,
"CCNC(=O)[C@@]12C[C@@H]1[C@@H](n1cnc3c(NCC)cc(Cl)nc31)[C@H](O)[C@@H]2O [Compound 69, (1S,2R,3S,4R,5S)-4-(5-chloro-7-(ethylamino)-3H-imidazo[4,5-b]pyridin-3-yl)-N-ethyl-2,3-dihydroxybicyclo[3.1.0]hexane-1-carboxamide]",1.68,
"CCNc1cc(Cl)nc2c1ncn2[C@H]1[C@H](O)[C@H](O)[C@]2(C(=O)NC)C[C@H]12 [Compound 59, (1S,2R,3S,4R,5S)-4-(5-chloro-7-(ethylamino)-3H-imidazo[4,5-b]pyridin-3-yl)-2,3-dihydroxy-N-methylbicyclo[3.1.0]hexane-1-carboxamide]",,"EC50 ([2]; CHO-K1 cells, Fluo-4, top concentration 10 μM, read-out: Cell Calcium Assay EC50): 1.2 nM; Cell Calcium Efficacy (%) ([2]; percentage of the response to NECA): 103.9%; EC50 ([3]; CHO cells expressing human adenosine A3 receptors, forskolin 10 μM): 0.11 nM; CAMP Efficacy (%) ([3]; maximal response as percentage of the response produced by 100 nM IB-MECA): 106.95%"
